Measurements taken from PubChem BioAssay AID1963837 (Molecular Pharmacology Branch, DTP, NCI, 2024).
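Throughout, for viability, T/C: spheroids exposed to drugs for seven days before readout.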

The compounds below were run on 843126-344-R-J1-PDC complex spheroid viability (assay: Anticancer human tumor 843126-344-R-J1-PDC patient-derived melanoma cell line growth inhibition [POLQ]). Details: curve of first compound; second compound 10 µM.
Procedure, shortened: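 Complex spheroid viability model combining PDC tumour cells with endothelial (HUVEC) and MSC stromal cells. Novobiocin, ART-558 or RP6685 were tested singly and in combination with standard and investigational anticancer drugs. Each was titrated in half-log steps from near clinical Cmax, or from 10 microM where Cmax was unknown.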
For CC(C)n1c(=O)n(C)c2cnc3cc(F)c(-c4ccc(OCCCN5CCCCC5)nc4)cc3c21 + Cc1cccc(N(C)C(=O)C2C(O)CCN2c2nc(C)cc(C(F)(F)F)c2C#N)c1, the IC50 was > 10 µM.
For CCc1cc2c(N3CCc4c(cc(Cn5ccnc5)cc4-c4cn(C)nc4C(F)(F)F)C3=O)cc(C)nc2c(OC)n1 + Cc1cccc(N(C)C(=O)C2C(O)CCN2c2nc(C)cc(C(F)(F)F)c2C#N)c1, the IC50 was > 10 µM.
With CCc1cc2c(N3CCc4c(cc(Cn5ccnc5)cc4-c4cn(C)nc4C(F)(F)F)C3=O)ccnc2c(OC)n1 + Cc1cccc(N(C)C(=O)C2C(O)CCN2c2nc(C)cc(C(F)(F)F)c2C#N)c1 the IC50 was > 10 µM.
For COc1cc2cc(C(=O)CCC(=O)O)sc2cc1OC + Cc1cccc(N(C)C(=O)C2C(O)CCN2c2nc(C)cc(C(F)(F)F)c2C#N)c1, the IC50 was > 10 µM.
In the case of COc1ccc([C@@H](O)c2cc(-c3ncnc4cc(N5CCOCC5)ccc34)c(F)cc2Cl)nn1 + Cc1cccc(N(C)C(=O)C2C(O)CCN2c2nc(C)cc(C(F)(F)F)c2C#N)c1, the IC50 is reported as > 10 µM.
In the case of O=C(Nc1ccc(O)c(NS(=O)(=O)c2ccc(F)cc2)c1)c1ccc(-c2ccccc2)cc1 + Cc1cccc(N(C)C(=O)C2C(O)CCN2c2nc(C)cc(C(F)(F)F)c2C#N)c1, the IC50 is reported as > 10 µM.

Same assay, conditions: second compound 0.0316 µM; first compound 0.0316 µM; stronger effect = lower value
Work on C#Cc1c(F)ccc2cc(O)cc(-c3ncc4c(N5CC6CCC(C5)N6)nc(OCC56CCCN5CC(F)C6)nc4c3F)c12 (configuration not stated) + Cc1cccc(N(C)C(=O)C2C(O)CCN2c2nc(C)cc(C(F)(F)F)c2C#N)c1 yielded a viability, T/C of 88%.
In the case of C=CC(=O)N1CCN(c2nc(=O)n(-c3c(C)ccnc3C(C)C)c3nc(-c4c(O)cccc4F)c(F)cc23)C(C)C1 (configuration not stated) + Cc1cccc(N(C)C(=O)C2C(O)CCN2c2nc(C)cc(C(F)(F)F)c2C#N)c1, the viability, T/C is reported as 87.6%.
Work on CC(C)n1c(=O)n(C)c2cnc3cc(F)c(-c4ccc(OCCCN5CCCCC5)nc4)cc3c21 + Cc1cccc(N(C)C(=O)C2C(O)CCN2c2nc(C)cc(C(F)(F)F)c2C#N)c1 yielded a viability, T/C of 100%.
In the case of CCc1cc2c(N3CCc4c(cc(Cn5ccnc5)cc4-c4cn(C)nc4C(F)(F)F)C3=O)cc(C)nc2c(OC)n1 + Cc1cccc(N(C)C(=O)C2C(O)CCN2c2nc(C)cc(C(F)(F)F)c2C#N)c1, the viability, T/C is reported as 90.8%.
Compound CCc1cc2c(N3CCc4c(cc(Cn5ccnc5)cc4-c4cn(C)nc4C(F)(F)F)C3=O)ccnc2c(OC)n1 + Cc1cccc(N(C)C(=O)C2C(O)CCN2c2nc(C)cc(C(F)(F)F)c2C#N)c1 has a viability, T/C of 91.3%.
COc1cc2cc(C(=O)CCC(=O)O)sc2cc1OC + Cc1cccc(N(C)C(=O)C2C(O)CCN2c2nc(C)cc(C(F)(F)F)c2C#N)c1 showed a viability, T/C of 95.8%.
COc1ccc([C@@H](O)c2cc(-c3ncnc4cc(N5CCOCC5)ccc34)c(F)cc2Cl)nn1 + Cc1cccc(N(C)C(=O)C2C(O)CCN2c2nc(C)cc(C(F)(F)F)c2C#N)c1 showed a viability, T/C of 95.1%.
O=C(Nc1ccc(O)c(NS(=O)(=O)c2ccc(F)cc2)c1)c1ccc(-c2ccccc2)cc1 + Cc1cccc(N(C)C(=O)C2C(O)CCN2c2nc(C)cc(C(F)(F)F)c2C#N)c1 showed a viability, T/C of 90%.

Same assay, conditions: second compound 0.0316 µM; first compound 0.1 µM; stronger effect = lower value
For C#Cc1c(F)ccc2cc(O)cc(-c3ncc4c(N5CC6CCC(C5)N6)nc(OCC56CCCN5CC(F)C6)nc4c3F)c12 (configuration not stated) + Cc1cccc(N(C)C(=O)C2C(O)CCN2c2nc(C)cc(C(F)(F)F)c2C#N)c1, the viability, T/C was 81.1%.
With C=CC(=O)N1CCN(c2nc(=O)n(-c3c(C)ccnc3C(C)C)c3nc(-c4c(O)cccc4F)c(F)cc23)C(C)C1 (configuration not stated) + Cc1cccc(N(C)C(=O)C2C(O)CCN2c2nc(C)cc(C(F)(F)F)c2C#N)c1 the viability, T/C was 95.2%.
CC(C)n1c(=O)n(C)c2cnc3cc(F)c(-c4ccc(OCCCN5CCCCC5)nc4)cc3c21 + Cc1cccc(N(C)C(=O)C2C(O)CCN2c2nc(C)cc(C(F)(F)F)c2C#N)c1 showed a viability, T/C of 87.7%.
CCc1cc2c(N3CCc4c(cc(Cn5ccnc5)cc4-c4cn(C)nc4C(F)(F)F)C3=O)cc(C)nc2c(OC)n1 + Cc1cccc(N(C)C(=O)C2C(O)CCN2c2nc(C)cc(C(F)(F)F)c2C#N)c1 showed a viability, T/C of 92.8%.
CCc1cc2c(N3CCc4c(cc(Cn5ccnc5)cc4-c4cn(C)nc4C(F)(F)F)C3=O)ccnc2c(OC)n1 + Cc1cccc(N(C)C(=O)C2C(O)CCN2c2nc(C)cc(C(F)(F)F)c2C#N)c1 gave a viability, T/C of 79.8%.
COc1cc2cc(C(=O)CCC(=O)O)sc2cc1OC + Cc1cccc(N(C)C(=O)C2C(O)CCN2c2nc(C)cc(C(F)(F)F)c2C#N)c1 was tested, and the viability, T/C was 83.5%.
In the case of COc1ccc([C@@H](O)c2cc(-c3ncnc4cc(N5CCOCC5)ccc34)c(F)cc2Cl)nn1 + Cc1cccc(N(C)C(=O)C2C(O)CCN2c2nc(C)cc(C(F)(F)F)c2C#N)c1, the viability, T/C is reported as 76.6%.
O=C(Nc1ccc(O)c(NS(=O)(=O)c2ccc(F)cc2)c1)c1ccc(-c2ccccc2)cc1 + Cc1cccc(N(C)C(=O)C2C(O)CCN2c2nc(C)cc(C(F)(F)F)c2C#N)c1 gave a viability, T/C of 95.2%.

Same assay, conditions: second compound 0.0316 µM; first compound 0.316 µM; stronger effect = lower value
Compound C#Cc1c(F)ccc2cc(O)cc(-c3ncc4c(N5CC6CCC(C5)N6)nc(OCC56CCCN5CC(F)C6)nc4c3F)c12 (configuration not stated) + Cc1cccc(N(C)C(=O)C2C(O)CCN2c2nc(C)cc(C(F)(F)F)c2C#N)c1 has a viability, T/C of 79.9%.
C=CC(=O)N1CCN(c2nc(=O)n(-c3c(C)ccnc3C(C)C)c3nc(-c4c(O)cccc4F)c(F)cc23)C(C)C1 (configuration not stated) + Cc1cccc(N(C)C(=O)C2C(O)CCN2c2nc(C)cc(C(F)(F)F)c2C#N)c1 gave a viability, T/C of 122%.
CC(C)n1c(=O)n(C)c2cnc3cc(F)c(-c4ccc(OCCCN5CCCCC5)nc4)cc3c21 + Cc1cccc(N(C)C(=O)C2C(O)CCN2c2nc(C)cc(C(F)(F)F)c2C#N)c1 was tested, and the viability, T/C was 97.2%.
For CCc1cc2c(N3CCc4c(cc(Cn5ccnc5)cc4-c4cn(C)nc4C(F)(F)F)C3=O)cc(C)nc2c(OC)n1 + Cc1cccc(N(C)C(=O)C2C(O)CCN2c2nc(C)cc(C(F)(F)F)c2C#N)c1, the viability, T/C was 80.9%.
Compound CCc1cc2c(N3CCc4c(cc(Cn5ccnc5)cc4-c4cn(C)nc4C(F)(F)F)C3=O)ccnc2c(OC)n1 + Cc1cccc(N(C)C(=O)C2C(O)CCN2c2nc(C)cc(C(F)(F)F)c2C#N)c1 has a viability, T/C of 80.6%.
In the case of COc1cc2cc(C(=O)CCC(=O)O)sc2cc1OC + Cc1cccc(N(C)C(=O)C2C(O)CCN2c2nc(C)cc(C(F)(F)F)c2C#N)c1, the viability, T/C is reported as 95.1%.
For COc1ccc([C@@H](O)c2cc(-c3ncnc4cc(N5CCOCC5)ccc34)c(F)cc2Cl)nn1 + Cc1cccc(N(C)C(=O)C2C(O)CCN2c2nc(C)cc(C(F)(F)F)c2C#N)c1, the viability, T/C was 93.3%.
O=C(Nc1ccc(O)c(NS(=O)(=O)c2ccc(F)cc2)c1)c1ccc(-c2ccccc2)cc1 + Cc1cccc(N(C)C(=O)C2C(O)CCN2c2nc(C)cc(C(F)(F)F)c2C#N)c1 was tested, and the viability, T/C was 93.6%.

Same assay, conditions: second compound 0.0316 µM; first compound 1 µM; stronger effect = lower value
Compound C#Cc1c(F)ccc2cc(O)cc(-c3ncc4c(N5CC6CCC(C5)N6)nc(OCC56CCCN5CC(F)C6)nc4c3F)c12 (configuration not stated) + Cc1cccc(N(C)C(=O)C2C(O)CCN2c2nc(C)cc(C(F)(F)F)c2C#N)c1 has a viability, T/C of 71.3%.
In the case of C=CC(=O)N1CCN(c2nc(=O)n(-c3c(C)ccnc3C(C)C)c3nc(-c4c(O)cccc4F)c(F)cc23)C(C)C1 (configuration not stated) + Cc1cccc(N(C)C(=O)C2C(O)CCN2c2nc(C)cc(C(F)(F)F)c2C#N)c1, the viability, T/C is reported as 94.6%.
CC(C)n1c(=O)n(C)c2cnc3cc(F)c(-c4ccc(OCCCN5CCCCC5)nc4)cc3c21 + Cc1cccc(N(C)C(=O)C2C(O)CCN2c2nc(C)cc(C(F)(F)F)c2C#N)c1 showed a viability, T/C of 78.7%.
In the case of CCc1cc2c(N3CCc4c(cc(Cn5ccnc5)cc4-c4cn(C)nc4C(F)(F)F)C3=O)cc(C)nc2c(OC)n1 + Cc1cccc(N(C)C(=O)C2C(O)CCN2c2nc(C)cc(C(F)(F)F)c2C#N)c1, the viability, T/C is reported as 77.7%.
CCc1cc2c(N3CCc4c(cc(Cn5ccnc5)cc4-c4cn(C)nc4C(F)(F)F)C3=O)ccnc2c(OC)n1 + Cc1cccc(N(C)C(=O)C2C(O)CCN2c2nc(C)cc(C(F)(F)F)c2C#N)c1 showed a viability, T/C of 83.3%.
COc1cc2cc(C(=O)CCC(=O)O)sc2cc1OC + Cc1cccc(N(C)C(=O)C2C(O)CCN2c2nc(C)cc(C(F)(F)F)c2C#N)c1 showed a viability, T/C of 98.8%.
With COc1ccc([C@@H](O)c2cc(-c3ncnc4cc(N5CCOCC5)ccc34)c(F)cc2Cl)nn1 + Cc1cccc(N(C)C(=O)C2C(O)CCN2c2nc(C)cc(C(F)(F)F)c2C#N)c1 the viability, T/C was 96.9%.
O=C(Nc1ccc(O)c(NS(=O)(=O)c2ccc(F)cc2)c1)c1ccc(-c2ccccc2)cc1 + Cc1cccc(N(C)C(=O)C2C(O)CCN2c2nc(C)cc(C(F)(F)F)c2C#N)c1 showed a viability, T/C of 90.3%.

Same assay, conditions: second compound 0.0316 µM; first compound 3.16 µM; stronger effect = lower value
With C#Cc1c(F)ccc2cc(O)cc(-c3ncc4c(N5CC6CCC(C5)N6)nc(OCC56CCCN5CC(F)C6)nc4c3F)c12 (configuration not stated) + Cc1cccc(N(C)C(=O)C2C(O)CCN2c2nc(C)cc(C(F)(F)F)c2C#N)c1 the viability, T/C was 95.8%.
C=CC(=O)N1CCN(c2nc(=O)n(-c3c(C)ccnc3C(C)C)c3nc(-c4c(O)cccc4F)c(F)cc23)C(C)C1 (configuration not stated) + Cc1cccc(N(C)C(=O)C2C(O)CCN2c2nc(C)cc(C(F)(F)F)c2C#N)c1 showed a viability, T/C of 89.6%.
With CC(C)n1c(=O)n(C)c2cnc3cc(F)c(-c4ccc(OCCCN5CCCCC5)nc4)cc3c21 + Cc1cccc(N(C)C(=O)C2C(O)CCN2c2nc(C)cc(C(F)(F)F)c2C#N)c1 the viability, T/C was 93%.
CCc1cc2c(N3CCc4c(cc(Cn5ccnc5)cc4-c4cn(C)nc4C(F)(F)F)C3=O)cc(C)nc2c(OC)n1 + Cc1cccc(N(C)C(=O)C2C(O)CCN2c2nc(C)cc(C(F)(F)F)c2C#N)c1 showed a viability, T/C of 72.4%.
